According to patent US10577373B2, “TYK2 inhibitors and uses thereof” (Nimbus Lakshmi, Inc., priority 2017, dated 2020):

What was measured:
[1] = molecular target: human TYK2 (JH2 domain-pseudokinase) (Homo sapiens (Human), UniProt P29597); test: TYK2 JH2 Domain Binding Assay (KINOMEscan)
Description: Binding constants for compounds of the present invention against the JH2 domain were determined by the following protocol for a KINOMEscan® assay (DiscoveRx). A fusion protein of a partial length construct of human TYK2 (JH2 domain-pseudokinase) (amino acids G556 to D888 based on reference sequence NP_003322.3) and the DNA binding domain of NFkB was expressed in transiently transfected HEK293 cells. From these HEK 293 cells, extracts were prepared in M-PER extraction buffer (Pierce) in the presence of Protease Inhibitor Cocktail Complete (Roche) and Phosphatase Inhibitor Cocktail Set II (Merck) per manufacturers' instructions. The TYK2 (JH2 domain-pseudokinase) fusion protein was labeled with a chimeric double-stranded DNA tag containing the NFkB binding site (5′-[…]-3′) fused to an amplicon for qPCR readout, which was added directly to the expression extract (the final concentration of DNA-tag in the binding reaction is 0.1 nM).
The liganded beads were blocked with excess biotin and washed with blocking buffer (SeaBlock (Pierce), 1% BSA, 0.05% Tween 20, 1 mM DTT) to remove unbound ligand and to reduce nonspecific binding.
Extracts were used directly in binding assays without any enzyme purification steps at a ≥10,000-fold overall stock dilution (final DNA-tagged enzyme concentration<0.1 nM). Extracts were loaded with DNA-tag and diluted into the binding reaction in a two step process. First extracts were diluted 1:100 in 1× binding buffer (PBS/0.05% Tween 20/10 mM DTT/0.1% BSA/2 μg/ml sonicated salmon sperm DNA) containing 10 nM DNA-tag. This dilution was allowed to equilibrate at room temperature for 15 minutes and then subsequently diluted 1:100 in 1× binding buffer. […] Kds were determined using an 11-point 3-fold compound dilution series with three DMSO control points. […] The compounds were then diluted directly into the assays such that the final concentration of DMSO was 0.9%. All reactions performed in polypropylene 384-well plates. Each was a final volume of 0.02 mL. Assays were incubated with shaking for 1 hour at room temperature. Then the beads were pelleted and washed with wash buffer (lx PBS, 0.05% Tween 20) to remove displaced kinase and test compound. […] The qPCR protocol consisted of a 10 minute hot start at 95° C., followed by 35 cycles of 95° C. for 15 seconds, 60° C. for 1 minute.
Kds were determined using an 11-point 3-fold compound dilution series with three DMSO control points. […] The compounds were then diluted directly into the assays such that the final concentration of DMSO was 0.9%. The Kds were determined using a compound top concentration of 30,000 nM. Kd measurements were performed in duplicate.
Binding constants (Kds) were calculated with a standard dose-response curve using the Hill equation: […]
The Hill Slope was set to −1.

Tyk2 kinase domain (JH1) = Tyk2 kinase domain (JH1) (Homo sapiens (Human), UniProt P29597); test: Tyk2 Radioactive Kinase Assay; assay type: biochemical; details: ATP 10 μM
Tyk2 kinase domain (JH1), sequence (P29597 897-1176): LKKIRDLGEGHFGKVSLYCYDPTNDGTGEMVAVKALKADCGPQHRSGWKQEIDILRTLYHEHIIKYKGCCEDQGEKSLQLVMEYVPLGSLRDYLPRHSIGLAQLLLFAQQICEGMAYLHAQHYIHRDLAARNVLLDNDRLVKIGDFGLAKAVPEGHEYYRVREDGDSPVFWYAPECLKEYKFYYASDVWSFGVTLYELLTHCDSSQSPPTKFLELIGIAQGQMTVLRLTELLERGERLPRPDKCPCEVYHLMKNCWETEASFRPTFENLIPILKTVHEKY
Description: (§1) The Tyk2 and JAK2 radioactive kinase assay measures the percent inhibition at the Tyk2 kinase domain (JH1) and the percent inhibition at the JAK2 kinase domain (JH1). Results of the assay are expressed as percent inhibition at 10 μM.

JAK2 kinase domain (JH1) = JAK2 kinase domain (JH1) (Homo sapiens (Human), UniProt O60674); test: JAK2 Radioactive Kinase Assay; assay type: biochemical; details: ATP 10 μM
JAK2 kinase domain (JH1), sequence (O60674 849-1124): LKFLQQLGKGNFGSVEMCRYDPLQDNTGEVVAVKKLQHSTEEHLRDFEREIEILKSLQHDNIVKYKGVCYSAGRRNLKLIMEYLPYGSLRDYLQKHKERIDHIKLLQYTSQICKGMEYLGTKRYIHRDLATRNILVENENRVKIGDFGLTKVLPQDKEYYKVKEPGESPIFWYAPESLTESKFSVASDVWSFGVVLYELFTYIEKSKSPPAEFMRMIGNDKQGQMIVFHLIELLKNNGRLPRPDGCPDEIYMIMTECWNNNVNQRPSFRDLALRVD
Description: as §1

[2] = system: IL-12 induced STAT4 phophorylation mediated by Tyk2/JAK2 (heterodimeric complex); test: IL-12 Induced pSTAT4 in Human PBMC; assay type: cell-based; details: 1.7 ng/mL IL-12
Excerpt: The IL-12 Induced pSTAT4 assay evaluates the inhibition of IL-12 induced STAT4 phophorylation mediated by Tyk2/JAK2 (heterodimeric complex).

[3] = system: GM-CSF induced STAT5 phosphorylation mediated by the JAK2/JAK2 homdimeric complex; test: GM-CSF Induced pSTAT5 in Human PBMC; details: Homo sapiens, PBMC, 20 min, read-out: PBMC_GMCSF_pSTAT5 IC50, human PBMC; GM-CSF 5 ng/mL for 20 minutes; pSTAT5
Description: Human PBMC are isolated from buffy coat and are stored frozen for assays as needed.

human TYK2 (JH2 domain-pseudokinase), sequence (P29597 556-888): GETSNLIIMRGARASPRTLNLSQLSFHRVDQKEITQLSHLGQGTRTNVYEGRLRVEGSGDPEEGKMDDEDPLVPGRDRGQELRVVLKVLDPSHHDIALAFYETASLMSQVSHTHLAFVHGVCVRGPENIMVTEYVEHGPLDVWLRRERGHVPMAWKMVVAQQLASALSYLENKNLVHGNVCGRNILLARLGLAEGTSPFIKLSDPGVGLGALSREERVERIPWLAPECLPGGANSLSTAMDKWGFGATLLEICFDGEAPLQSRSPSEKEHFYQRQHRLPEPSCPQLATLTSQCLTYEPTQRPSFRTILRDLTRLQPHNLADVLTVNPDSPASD

[2H]C([2H])([2H])Oc1ncccc1Nc1cc(NC)n2ncc(C(=O)N[C@H]3[C@@H]4COC[C@@H]43)c2n1 [I-447]
Kd [1]: < 0.2 nM

CNc1cc(Nc2cccnc2OC2CC2)nc2c(C(=O)NC3CC4(COC4)C3)cnn12 [I-433]
inhibition at 10 µM (Tyk2 kinase domain (JH1); compound at 10 μM): < 50% | inhibition at 10 µM (JAK2 kinase domain (JH1); compound at 10 μM): 50 to 70%

CNc1cc(-c2cn([C@H]3CCN(CCF)C3)c3cnccc23)nc2c(C(=O)NC3CC3)cnn12 [I-1363]
Kd [1]: 0.2 to 1 nM

CNc1cc(C2=CN(C(C)C)C3N=CC(F)=CC23)nc2c(C(=O)N[C@@H]3CC[C@@H]3O)cnn12 (some centres unmarked) [I-1386]
Kd [1]: 1 to 10 nM

CNc1cc(C2=CN(C(C)C)C3N=CC(F)=CC23)nc2c(C(=O)N[C@H]3CC[C@H]3O)cnn12 (some centres unmarked) [I-1387]
Kd [1]: 1 to 10 nM | IC50 [2]: < 100 nM

CNc1cc(Nc2cccn(-c3cnc(C(=O)N(C)C)cn3)c2=O)nc2c(C(N)=O)cnn12 [I-53, 5-((1-(5-(dimethylcarbamoyl)pyrazin-2-yl)-2-oxo-1,2-dihydropyridin-3-yl)amino)-7-(methylamino)pyrazolo[1,5-a]pyrimidine-3-carboxamide]
Kd [1]: < 0.2 nM | inhibition at 10 µM (Tyk2 kinase domain (JH1); 10 μM compound): < 50% | inhibition at 10 µM (JAK2 kinase domain (JH1); 10 μM compound): < 50%

CNc1cc(Nc2cccc(N3CCOC4(CCOC4)C3)n2)nc2c(C(=O)NC3CC3)cnn12 (centres unmarked) [I-744]
inhibition at 10 µM (Tyk2 kinase domain (JH1); compound at 10 μM): < 50% | inhibition at 10 µM (JAK2 kinase domain (JH1); compound at 10 μM): < 50%

CNc1cc(-c2cn([C@H]3CCN(CCF)C3)c3cnccc23)nc2c(C(=O)N[C@@H]3C[C@@H]3F)cnn12 [I-1362]
Kd [1]: 0.2 to 1 nM | IC50 [2]: < 100 nM

CNc1cc(Nc2cccn(C(C)C)c2=O)cc2c(C(=O)N[C@H]3CC[C@@]3(C)O)cnn12 [I-1371]
Kd [1]: < 0.2 nM

CNc1cc(Nc2cccc([C@@H]3CCCOC3)n2)nc2c(C(=O)N[C@H]3CC[C@H]3O)cnn12 [I-645]
Kd [1]: 1 to 10 nM

CNc1cc(Nc2cc(F)cn(C3CCOCC3)c2=O)nc2c(C(=O)NCC(C)(C)CO)cnn12 [I-529]
inhibition at 10 µM (Tyk2 kinase domain (JH1); compound at 10 μM): < 50% | inhibition at 10 µM (JAK2 kinase domain (JH1); compound at 10 μM): < 50%

CNc1cc(Nc2cccn(-c3cccc(C)n3)c2=O)nc2c(C(=O)NC3CC3)cnn12 [I-237]
Tyk2 JH1% Inhibition @ 10 μM (Tyk2 kinase domain (JH1); 10 μM compound): A (percent inhibition at 10 μM lower than 50) | JAK2 JH1% Inhibition @ 10 μM (JAK2 kinase domain (JH1); 10 μM compound): A (percent inhibition at 10 μM lower than 50)

CNc1cc(Nc2cccn(-c3ccccn3)c2=O)nc2c(C(=O)N[C@@H]3CC[C@H]3COC)cnn12 [I-1232]
Kd [1]: 0.2 to 1 nM

CNc1cc(Nc2cc(Cl)cn(C3CCOCC3)c2=O)nc2c(C(=O)NCC(C)(C)CO)cnn12 [I-694]
Kd [1]: < 0.2 nM | inhibition at 10 µM (Tyk2 kinase domain (JH1); compound at 10 μM): < 50% | inhibition at 10 µM (JAK2 kinase domain (JH1); compound at 10 μM): < 50% | IC50 [2]: < 100 nM | IC50 [3]: > 50000 nM

CNc1cc(-c2cn(C3CC3)c3ncccc23)nc2c(C(=O)N[C@@H]3CC[C@H]3OC)cnn12 [I-1324]
Kd [1]: < 0.2 nM

CNc1cc(Nc2cccn([C@H]3CCCC[C@H]3O)c2=O)nc2c(C(=O)N[C@@H]3C[C@@H]3F)cnn12 [I-988, N-((1R,2S)-2-fluorocyclopropyl)-5-((1-((1S,2R)-2-hydroxycyclohexyl)-2-oxo-1,2-dihydropyridin-3-yl)amino)-7-(methylamino)pyrazolo[1,5-a]pyrimidine-3-carboxamide]
Kd [1]: < 0.2 nM | inhibition at 10 µM (Tyk2 kinase domain (JH1); 10 μM compound): < 50% | inhibition at 10 µM (JAK2 kinase domain (JH1); 10 μM compound): < 50% | IC50 [2]: < 100 nM | IC50 [3]: > 50000 nM
